Laboratory results reported in patent US11903923B2, “Use of andrographolide derivatives in preparation of medicaments for preventing and treating inflammatory bowel diseases” (GUANGZHOU MAGPIE PHARMACEUTICALS CO., LTD., priority 2015, dated 2024).

Legend:
[1] = system: TNBS-induced ulcerative colitis mice; test: body weight of TNBS-induced ulcerative colitis mice; type: in vivo
Text: The mice of normal control group were shown lively, body hair shiny, and weight continued to increase. The model mice after TNBS enema appeared to be apathetic and lazy with body hair messy and less luster, and with water intake being reduced. The model mice were also shown continuing decrease in body weight, with an average weight loss of 17.9% on the third day compared with that before rectal perfusion.

[2] = system: TNBS-induced ulcerative colitis mice; test: disease activity index (DAI) of TNBS-induced ulcerative colitis mice; type: in vivo; conditions: third day after enema
[3] = system: TNBS-induced ulcerative colitis mice; test: colon length of TNBS-induced ulcerative colitis mice; type: in vivo; conditions: three days after TNBS enema
[4] = system: TNBS-induced ulcerative colitis mice; test: morphological observation of the colon of TNBS-induced ulcerative colitis mice; type: in vivo
Text: In the TNBS model group mice, the lesions of the colon were obvious, the colon was shortened, the proximal colon was dilated with indication of obstructive lesions, and the distal intestine became narrowed with indication of ulceration with congestion, edema, erosion and intestinal wall thickening.

[5] = system: TNBS-induced ulcerative colitis mice; test: histopathological observation (HE staining, CMDI) of the colon of TNBS-induced ulcerative colitis mice; type: in vivo
Text: Colon tissues were paraffin-embedded and sliced in parallel with HE staining.

myeloperoxidase (MPO) = test: MPO activity test in colon tissue of TNBS-induced ulcerative colitis mice; type: in vivo
Text: It can be seen from the results of MPO activity test in colonic tissues that the content of MPO in normal tissue was very low, the neutrophil infiltration was obvious in model group treated with TNBS, and the content of MPO increased obviously, being twice as that in normal group.

TNF-α = test: serum inflammatory cytokine TNF-α in TNBS-induced ulcerative colitis mice; type: in vivo
IL-6 = test: serum inflammatory cytokine IL-6 in TNBS-induced ulcerative colitis mice; type: in vivo
IL-1β = test: serum inflammatory cytokine IL-1β in TNBS-induced ulcerative colitis mice; type: in vivo
[6] = system: p65 subunit in the NF-κB signaling pathway; test: Western blotting of p-p65 and p65 in colonic tissues; type: in vivo, mice; conditions: compared with the model group
Text: NF-κB, as a key transcription factor regulating the release of inflammatory cytokines, plays an important role in the complex cytokine dysregulation network of IBD. To investigate whether the inhibitory effect of AL-1 on the expression of inflammatory cytokines TNF-α, IL-6 and IL-1β is related to the activation of NF-κB signaling pathway, the present inventors used Western blotting to detect the expression of p-p65 and p65 in colonic tissues.

COX-2 = test: expression of COX-2 in colon tissue; type: in vivo; conditions: TNBS-induced mice
Text: Cyclooxygenase-2 (COX-2) is undetectable in normal human colonic epithelial cells, but the presence of a large amount of COX-2 can be detectable in the intestinal mucosal epithelial cells of CD patients and UC patients. Such high expression can cause elevated expression of pro-inflammatory substance of prostaglandin, and promote IBD epithelial congestion and edema.

PPAR-γ = test: amount of PPAR-γ expressed in colon tissue; type: in vivo; conditions: TNBS-induced mice
Text: Peroxisome proliferator-activated receptor γ (PPAR-γ) may have anti-inflammatory effects by inhibiting the expression of transcription factors NF-κB, AP-1 and other related genes, have the effects of reducing the expression of inflammatory factors and adhesion molecules, and play important role for maintaining the integrity of the intestinal mucosa. Studies have shown that, when IBD occurred, the in vivo expression of PPAR-γ would be reduced in some extent.

[7] = first 60 minutes of the reaction, in vitro; cited from earlier work

SMILES: C=C1CCC2[C@@](C)(CC[C@@H](O)[C@@]2(C)CO)C1C/C=C1/C(=O)OCC1OC(=O)CCCCC1CCSS1 (stereo partly shown) [AL-1]
- body weight increase on average compared with the model group ([1]; AL-1 45 mg/kg, third day): 4.65%
- average DAI score ([2]; 5 mg/kg): 6.00
- average DAI score ([2]; 15 mg/kg): 6.25
- average DAI score ([2]; 45 mg/kg): 4.00
- colon length ([3]; AL-1 5, 15 and 45 mg/kg): enhanced the colonic length
- colon morphology ([4]; AL-1 5, 15 and 45 mg/kg): significant reduction of the symptoms
- colon histopathology (HE staining) ([5]; 5 mg/kg): obvious myositis cell infiltration of mucosa and submucosa but in much less extent as compared with the model groups
- colon histopathology (HE staining) ([5]; 15 mg/kg): myositis cell infiltration was reduced
- colon histopathology (HE staining) ([5]; 45 mg/kg): significant reduction in the amount of myositis cell infiltration of mucosa and submucosa
- CMDI (tissue damage) ([5]; AL-1 5, 15 and 45 mg/kg): improve tissue damage in a dose-dependent manner
- MPO content in the colon tissue (myeloperoxidase (MPO); AL-1 5, 15 and 45 mg/kg): lessen in a dose-dependent manner the increase of the MPO content
- serum level of TNF-α (TNF-α; AL-1 5, 15, 45 mg/kg): significantly lessen the increase
- serum level of IL-6 (IL-6; AL-1 5, 15, 45 mg/kg): significantly lessen the increase
- serum level of IL-1β (IL-1β; AL-1 5, 15, 45 mg/kg): significantly lessen the increase
- phosphorylation level of p65 in colonic tissue [6]: significantly reduce the phosphorylation level of p65
- COX-2 expression level in colon tissue (COX-2): effectively inhibit the increase of COX-2 expression level
- expression of PPAR-γ in colon tissue (PPAR-γ): significantly increased the expression of PPAR-γ
- binding rate with the sulfydryl group of GSH relative to Andro [7]: 7 times

SMILES: Nc1ccc(O)c(C(=O)O)c1 [Mesalazine, reference compound]
- body weight of the mice ([1]; Mesalazine, from the second day after modeling, P<0.05): significantly increased body weight
- average DAI score ([2]; 100 mg/kg): 5.13
- improvement of colon length ([3]; Mesalazine, compared with the model groups): not significant
- colon morphology ([4]; Mesalazine group): improvement on colon injury
- colon histopathology (HE staining) ([5]; 100 mg/kg): obvious relief of myositis cell infiltration
- CMDI (mucosal injury) ([5]; Mesalazine): significant effect to improve mucosal injury
- MPO content in the colon tissue (myeloperoxidase (MPO); Mesalazine, P<0.01): obviously reduce the content of MPO
- serum level of TNF-α (TNF-α; Mesalazine): significantly lessen the increase
- serum level of IL-6 (IL-6; Mesalazine): significantly lessen the increase
- serum level of IL-1β (IL-1β; Mesalazine): significantly lessen the increase
- phosphorylation level of p65 in colonic tissue [6]: significantly reduce the phosphorylation level of p65
- COX-2 expression level in colon tissue (COX-2): effectively inhibit the increase of COX-2 expression level
- expression of PPAR-γ in colon tissue (PPAR-γ): significantly increased the expression of PPAR-γ
